Patent US20160022636A1, “PHYSIOLOGICAL LIGANDS FOR GPR139” (JANSSEN PHARMACEUTICA NV, priority 2013, published 2016)
Values joined by “and” are separate entries in the source; they are usually repeats but may differ in a detail not shown here. Identical values can stand only once.

Key:
GO2Q alone = experiment: GTPγS binding assay, control membranes from COS7 cells expressing GO2Q alone (Ct-GO2Q); format: biochemical; settings: for Activation levels (GTPγS binding signal), Ct-GO2Q: 1 mM final concentration, single wells of triplicate, COS7 membranes with GO2Q alone (control panel); for activation of membranes from cells expressing GO2Q alone (in words): 1 mM, same assay
Excerpt: Human (A and B) or mouse (C and D) GPR139 were co-transfected with chimeric G-protein GO2Q into COS7 cells. Cell membranes from transfected cells were used in GTPγS binding studies using various ligands at different concentrations to stimulate GPR139. Membranes from COS7 cells transfected by GO2Q were used as the controls (E and F).
(§1) In order identify the ligands for GPR139 two improvements in the detection assay were made to allow for the ligands to be detected. First, we chose to use a GTPγS binding assay instead of using live cultured cells. The GTPγS binding assay is a cell free system that uses the cell membrane of the cell(s) of interest rather than the live cell(s). One advantage of this assay is that potential ligands present in the cell culture media are washed away when the cell membrane is prepared. This reduces the basal level of signal and increase the chance of detecting receptor ligands when assessing compounds that activate the receptor. Second, a GO2Q chimeric G-protein was created to be co-expressed with GPR139 in order to increase the signal-to-noise ratio in the GTPγS binding assay. Historically, the Gi, Go coupled GPCRs offer much greater signal-to-noise ratio in GTPγS binding studies. For Gs and Gq coupled GPCRs, although ligand-stimulated specific signals can be detected in a GTPγS binding assay, the signal-to-noise ratios are often very small. To address this a chimeric GO2-Gq chimeric G-protein, GO2Q, with the N-terminus from Go2 protein and the C-terminus from Gq protein.
(§2) To test for compounds that activate GPR139, different amino acids and their derivatives (Table 2) were tested as ligands in the GTPγS binding assay using cell membranes from COS7 cells co-expressing GPR139 and GO2Q. Cell membrane from COS7 cells expressing GO2Q alone or co-expressing other GPCRs were also tested in GTPγS binding assay in parallel as controls. Each compound was tested in triplicate.

GPR52 = biological target: T1, GPR52 (Homo sapiens, UniProt Q9Y2T5); experiment: GTPγS binding assay, membranes co-expressing GO2Q and GPR52; format: biochemical; settings: data not shown
T1 construct: expressed in transfected cells; host or cells: COS7
T1 sequence (Q9Y2T5 whole entry, species assumed): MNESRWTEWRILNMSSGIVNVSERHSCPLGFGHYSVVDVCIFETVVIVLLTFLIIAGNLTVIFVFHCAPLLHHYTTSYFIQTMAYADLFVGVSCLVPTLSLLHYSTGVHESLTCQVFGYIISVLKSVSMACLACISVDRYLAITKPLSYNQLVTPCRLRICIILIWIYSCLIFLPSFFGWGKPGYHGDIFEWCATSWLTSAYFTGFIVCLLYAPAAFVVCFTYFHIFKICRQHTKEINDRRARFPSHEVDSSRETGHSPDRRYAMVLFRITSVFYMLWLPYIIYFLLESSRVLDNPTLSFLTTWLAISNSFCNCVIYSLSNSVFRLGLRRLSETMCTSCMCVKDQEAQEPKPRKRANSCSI
Method: as §2

GPR139 [1] = biological target: T2, GPR139 (Homo sapiens, UniProt Q6DWJ6); experiment: GTPγS binding dose response, COS7 membranes co-transfected with human GPR139 and GO2Q; format: biochemical; parameters: expressed in transfected cells; host or cells: COS7; settings: human GPR139, FIG. 2 A and B
T2 sequence (Q6DWJ6 1-353): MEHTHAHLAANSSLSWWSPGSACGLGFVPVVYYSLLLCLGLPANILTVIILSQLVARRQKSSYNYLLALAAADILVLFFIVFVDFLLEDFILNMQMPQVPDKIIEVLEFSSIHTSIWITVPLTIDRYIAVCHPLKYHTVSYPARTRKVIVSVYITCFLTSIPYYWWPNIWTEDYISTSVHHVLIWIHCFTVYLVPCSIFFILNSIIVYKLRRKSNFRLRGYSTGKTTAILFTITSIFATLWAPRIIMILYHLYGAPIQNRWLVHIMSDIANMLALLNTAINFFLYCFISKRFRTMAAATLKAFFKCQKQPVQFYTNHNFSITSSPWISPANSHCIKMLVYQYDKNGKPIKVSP
Excerpt: (§3) FIG. 2: Tryptophan, phenylalanine, and their derivatives activate GPR139. Human (A and B) or mouse (C and D) GPR139 were co-transfected with chimeric G-protein GO2Q into COS7 cells. Cell membranes from transfected cells were used in GTPγS binding studies using various ligands at different concentrations to stimulate GPR139. Membranes from COS7 cells transfected by GO2Q were used as the controls (E and F).

GPR139 [2] = biological target: T2, GPR139; experiment: calcium mobilization assay (FLIPR), GPR139 transiently expressed in HEK293 cells; format: cell-based; parameters: expressed in transfected cells; host or cells: HEK293; settings: HEK293 cells transiently expressing human GPR139, FIG. 3
Excerpt: For these experiments human GPR139 was transiently expressed in HEK293 cells and calcium mobilization was stimulated using L-Trp, L-Phe or their derivatives.

GPCR119 = experiment: GTPγS binding assay, membranes co-expressing GO2Q and GPCR119; format: biochemical; settings: data not shown
Method: as §2

GPR139 [3] = biological target: T2, GPR139; experiment: GTPγS binding assay, membranes from COS7 cells co-expressing GPR139 and GO2Q, single concentration screen; format: biochemical; parameters: expressed in transfected cells; host or cells: COS7; settings: for activation of GPR139 in GTPγS binding assay (in words): 1 mM; for Activation levels of GPR139 (GTPγS binding signal), GPR139-GO2Q: 1 mM final concentration, single wells of triplicate, COS7 membranes co-expressing GPR139 and GO2Q
Method: as §1, §2

GPR182 = biological target: T3, GPR182 (Homo sapiens, UniProt O15218); experiment: GTPγS binding assay, membranes co-expressing GO2Q and GPR182; format: biochemical; settings: data not shown
T3 construct: expressed in transfected cells; host or cells: COS7
T3 sequence (O15218 whole entry, species assumed): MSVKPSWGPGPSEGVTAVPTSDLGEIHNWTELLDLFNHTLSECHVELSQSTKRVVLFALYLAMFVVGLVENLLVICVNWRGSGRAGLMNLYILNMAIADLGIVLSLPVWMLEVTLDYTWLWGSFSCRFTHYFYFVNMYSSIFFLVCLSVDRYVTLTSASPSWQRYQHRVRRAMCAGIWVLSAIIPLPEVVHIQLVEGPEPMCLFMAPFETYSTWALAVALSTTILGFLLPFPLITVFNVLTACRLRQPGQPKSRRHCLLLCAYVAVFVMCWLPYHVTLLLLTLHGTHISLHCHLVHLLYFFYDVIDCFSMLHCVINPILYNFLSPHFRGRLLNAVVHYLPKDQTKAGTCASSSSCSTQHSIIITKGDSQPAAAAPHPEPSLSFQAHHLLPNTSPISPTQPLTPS
Method: as §2

GPCR132 = experiment: GTPγS binding assay, membranes co-expressing GO2Q and GPCR132; format: biochemical; settings: data not shown
Method: as §2

GPCR134 = experiment: GTPγS binding assay, membranes co-expressing GO2Q and GPCR134; format: biochemical; settings: data not shown
Method: as §2

mouse GPR139 = biological target: T4, mouse GPR139 (Mus musculus, UniProt Q80UC8); experiment: GTPγS binding dose response, COS7 membranes co-transfected with mouse GPR139 and GO2Q; format: biochemical; settings: mouse GPR139, FIG. 2 C and D
T4 construct: expressed in transfected cells; host or cells: COS7
T4 sequence (Q80UC8 1-345): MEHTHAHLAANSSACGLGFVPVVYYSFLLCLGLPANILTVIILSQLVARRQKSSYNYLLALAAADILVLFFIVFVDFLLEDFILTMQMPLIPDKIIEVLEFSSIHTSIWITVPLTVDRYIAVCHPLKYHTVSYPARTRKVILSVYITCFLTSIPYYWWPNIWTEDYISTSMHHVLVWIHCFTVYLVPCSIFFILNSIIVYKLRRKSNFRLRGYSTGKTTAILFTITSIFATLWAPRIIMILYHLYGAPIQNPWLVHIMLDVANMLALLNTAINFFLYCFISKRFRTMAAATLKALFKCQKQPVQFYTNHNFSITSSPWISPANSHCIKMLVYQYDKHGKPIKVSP
Excerpt: as §3

GPR21 = biological target: T5, GPR21 (Homo sapiens, UniProt Q99679); experiment: GTPγS binding assay, membranes co-expressing GO2Q and GPR21; format: biochemical; settings: data not shown
T5 construct: expressed in transfected cells; host or cells: COS7
T5 sequence (Q99679 whole entry, species assumed): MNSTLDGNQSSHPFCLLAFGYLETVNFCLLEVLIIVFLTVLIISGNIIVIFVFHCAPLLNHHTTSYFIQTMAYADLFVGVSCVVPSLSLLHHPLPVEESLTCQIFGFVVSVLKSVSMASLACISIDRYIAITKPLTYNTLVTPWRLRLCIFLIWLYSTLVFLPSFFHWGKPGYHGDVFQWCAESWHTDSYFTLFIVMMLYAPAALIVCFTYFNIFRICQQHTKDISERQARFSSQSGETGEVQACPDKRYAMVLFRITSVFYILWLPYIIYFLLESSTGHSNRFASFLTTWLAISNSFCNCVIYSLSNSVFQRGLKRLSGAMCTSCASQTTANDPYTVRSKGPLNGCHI
Method: as §2

Row | SMILES | Activation levels (GTPγS binding signal), Ct-GO2Q (GO2Q alone) | activation of membranes from cells expressing GO2Q alone (in words) (GO2Q alone) | activation of membranes co-expressing GO2Q and GPR52 (in words) (GPR52) | dose response activation of GPR139 (in words) (GPR139 [1]) | stimulation of calcium mobilization (in words) (GPR139 [2]) | activation of membranes co-expressing GO2Q and GPCR119 (in words) (GPCR119) | activation of GPR139 in GTPγS binding assay (in words) (GPR139 [3]) | Activation levels of GPR139 (GTPγS binding signal), GPR139-GO2Q (GPR139 [3]) | activation of membranes co-expressing GO2Q and GPR182 (in words) (GPR182) | activation of membranes co-expressing GO2Q and GPCR132 (in words) (GPCR132) | activation of membranes co-expressing GO2Q and GPCR134 (in words) (GPCR134) | dose response activation of GPR139 (in words) (mouse GPR139) | activation of membranes co-expressing GO2Q and GPR21 (in words) (GPR21) | Activation levels (GTPγS binding signal), Ct-GO2Q (GO2Q alone; listed as b-phenylethylamine) | Activation levels of GPR139 (GTPγS binding signal), GPR139-GO2Q (GPR139 [3]; listed as b-phenylethylamine)
1 | N[C@@H](Cc1ccccc1)C(=O)O [L-Phe, L-phenylalanine] | 2190 and 2215 and 2345 | did not activate | did not activate | specifically activate GPR139 in a dose-responsive manner | specifically stimulate calcium mobilization | did not activate | able to activate GPR139 | 8697 and 6925 and 8417 | did not activate | did not activate | did not activate | specifically activate GPR139 in a dose-responsive manner | did not activate | – | –
2 | N[C@@H](Cc1c[nH]c2ccccc12)C(=O)O [L-Trp, L-tryptophan] | 2172 and 2234 and 2272 | did not activate | did not activate | specifically activate GPR139 in a dose-responsive manner | specifically stimulate calcium mobilization | did not activate | able to activate GPR139 | 8141 and 9121 and 9149 | did not activate | did not activate | did not activate | specifically activate GPR139 in a dose-responsive manner | did not activate | – | –
3 | NCCc1c[nH]c2ccccc12 [Tryptamine, tryptamine] | 2025 and 2048 and 2088 | – | – | specifically activate GPR139 in a dose-responsive manner | – | – | activated GPR139 | 6757 and 7686 and 7742 | – | – | – | specifically activate GPR139 in a dose-responsive manner | – | – | –
4 | NCCc1ccccc1 [β-phenylethylamine] | – | – | – | specifically activate GPR139 in a dose-responsive manner | – | – | activated GPR139 | – | – | – | – | specifically activate GPR139 in a dose-responsive manner | – | 2334 and 2065 and 2024 | 6705 and 7099 and 6634
